Data taken from PubChem BioAssay (NCI).
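Values below derive from 48-hour exposures of cells grown in 96-well plates, with endpoints linearly interpolated between the two concentrations bracketing the appropriate inhibition level. GI50 marks 50% less growth. TGI denotes the concentration required for complete inhibition of growth.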

Legend:
Experiment in all cases: DTP human tumour cell line panel, 48 h
786-0 renal = system: 786-0 renal
A498 renal = system: A498 renal
ACHN renal = system: ACHN renal
CAKI-1 renal = system: CAKI-1 renal
CCRF-CEM leukemia = system: CCRF-CEM leukemia
DLD-1 colon = system: DLD-1 colon
DMS 114 small cell lung = system: DMS 114 small cell lung
DMS 273 small cell lung = system: DMS 273 small cell lung
EKVX NSCLC = system: EKVX NSCLC
HCT-116 colon = system: HCT-116 colon
HL-60(TB) leukemia = system: HL-60(TB) leukemia
HOP-62 NSCLC = system: HOP-62 NSCLC
HOP-92 NSCLC = system: HOP-92 NSCLC
HT29 colon = system: HT29 colon
IGROV1 ovarian = system: IGROV1 ovarian
K-562 leukemia = system: K-562 leukemia
KM12 colon = system: KM12 colon
M14 melanoma = system: M14 melanoma
M19-MEL melanoma = system: M19-MEL melanoma
MALME-3M melanoma = system: MALME-3M melanoma
MOLT-4 leukemia = system: MOLT-4 leukemia
NCI-H226 lung = system: NCI-H226 lung
NCI-H23 lung = system: NCI-H23 lung
NCI-H460 lung = system: NCI-H460 lung
NCI-H522 lung = system: NCI-H522 lung
OVCAR-3 ovarian = system: OVCAR-3 ovarian
OVCAR-4 ovarian = system: OVCAR-4 ovarian
OVCAR-5 ovarian = system: OVCAR-5 ovarian
OVCAR-8 ovarian = system: OVCAR-8 ovarian
RXF 393 renal = system: RXF 393 renal
SF-268 CNS = system: SF-268 CNS
SF-295 CNS = system: SF-295 CNS
SF-539 CNS = system: SF-539 CNS
SK-MEL-2 melanoma = system: SK-MEL-2 melanoma
SK-MEL-28 melanoma = system: SK-MEL-28 melanoma
SK-MEL-5 melanoma = system: SK-MEL-5 melanoma
SK-OV-3 ovarian = system: SK-OV-3 ovarian
SN12C renal = system: SN12C renal
SNB-19 CNS = system: SNB-19 CNS
SNB-75 CNS = system: SNB-75 CNS
SNB-78 CNS = system: SNB-78 CNS
SW-620 colon = system: SW-620 colon
TK-10 renal = system: TK-10 renal
U251 CNS = system: U251 CNS
UACC-257 melanoma = system: UACC-257 melanoma
UACC-62 melanoma = system: UACC-62 melanoma
UO-31 renal = system: UO-31 renal
XF 498 CNS = system: XF 498 CNS
COLO 205 colon = system: COLO 205 colon
HCC-2998 colon = system: HCC-2998 colon
HOP-18 NSCLC = system: HOP-18 NSCLC
KM20L2 colon = system: KM20L2 colon
LOX IMVI melanoma = system: LOX IMVI melanoma
LXFL 529 NSCLC = system: LXFL 529 NSCLC
RPMI-8226 leukemia = system: RPMI-8226 leukemia
SR leukemia = system: SR leukemia

`COC(OC)c1cc2c(cc1C(=O)[C@@]13CCC[C@@H]1NC(=O)O3)OCO2` was tested, and the TGI (786-0 renal) was over 100 µM, the TGI (A498 renal) was over 100 µM and the TGI (ACHN renal) was over 100 µM. It also gave a TGI (CAKI-1 renal) of over 100 µM, a TGI (CCRF-CEM leukemia) of over 100 µM and a TGI (DLD-1 colon) of over 100 µM. For the same molecule, the TGI (DMS 114 small cell lung) was over 100 µM, the TGI (DMS 273 small cell lung) was over 100 µM and the TGI (EKVX NSCLC) was over 100 µM. The TGI (HCT-116 colon) was over 100 µM, the TGI (HL-60(TB) leukemia) was over 100 µM and the TGI (HOP-62 NSCLC) was over 100 µM. For the same molecule, the TGI (HOP-92 NSCLC) was over 100 µM, the TGI (HT29 colon) was over 100 µM and the TGI (IGROV1 ovarian) was over 100 µM. For the same molecule, the TGI (K-562 leukemia) was over 100 µM, the TGI (KM12 colon) was over 100 µM and the TGI (M14 melanoma) was over 100 µM. The TGI (M19-MEL melanoma) was over 100 µM, the TGI (MALME-3M melanoma) was over 100 µM and the TGI (MOLT-4 leukemia) was over 100 µM. For the same molecule, the TGI (NCI-H226 lung) was over 100 µM, the TGI (NCI-H23 lung) was over 100 µM and the TGI (NCI-H460 lung) was over 100 µM. It also gave a TGI (NCI-H522 lung) of over 100 µM, a TGI (OVCAR-3 ovarian) of over 100 µM and a TGI (OVCAR-4 ovarian) of over 100 µM. It also gave a TGI (OVCAR-5 ovarian) of over 100 µM, a TGI (OVCAR-8 ovarian) of over 100 µM and a TGI (RXF 393 renal) of over 100 µM. The TGI (SF-268 CNS) was over 100 µM, the TGI (SF-295 CNS) was over 100 µM and the TGI (SF-539 CNS) was over 100 µM. For the same molecule, the TGI (SK-MEL-2 melanoma) was over 100 µM, the TGI (SK-MEL-28 melanoma) was over 100 µM and the TGI (SK-MEL-5 melanoma) was over 100 µM. The TGI (SK-OV-3 ovarian) was over 100 µM, the TGI (SN12C renal) was over 100 µM and the TGI (SNB-19 CNS) was over 100 µM. For the same molecule, the TGI (SNB-75 CNS) was over 100 µM, the TGI (SNB-78 CNS) was over 100 µM and the TGI (SW-620 colon) was over 100 µM. It also gave a TGI (TK-10 renal) of over 100 µM, a TGI (U251 CNS) of over 100 µM and a TGI (UACC-257 melanoma) of over 100 µM. For the same molecule, the TGI (UACC-62 melanoma) was over 100 µM, the TGI (UO-31 renal) was over 100 µM and the TGI (XF 498 CNS) was over 100 µM.
Work on `O=c1cc(-c2ccccn2)[nH]c2ccc(Cl)cc12` yielded a TGI (786-0 renal) of over 100 µM, a TGI (ACHN renal) of over 100 µM and a TGI (CCRF-CEM leukemia) of over 100 µM. For the same molecule, the TGI (COLO 205 colon) was over 100 µM, the TGI (DLD-1 colon) was over 100 µM and the GI50 (DMS 114 small cell lung) was 13.9 µM. For the same molecule, the TGI (DMS 114 small cell lung) was 49 µM, the TGI (EKVX NSCLC) was over 100 µM and the TGI (HCC-2998 colon) was over 100 µM. The GI50 (HCT-116 colon) was 26 µM, the TGI (HCT-116 colon) was over 100 µM and the TGI (HL-60(TB) leukemia) was over 100 µM. For the same molecule, the TGI (HOP-18 NSCLC) was over 100 µM, the TGI (HOP-62 NSCLC) was over 100 µM and the TGI (HOP-92 NSCLC) was over 100 µM. For the same molecule, the TGI (HT29 colon) was over 100 µM, the TGI (IGROV1 ovarian) was over 100 µM and the TGI (K-562 leukemia) was over 100 µM. The TGI (KM12 colon) was over 100 µM, the GI50 (KM20L2 colon) was 40 µM and the TGI (KM20L2 colon) was over 100 µM. For the same molecule, the TGI (LOX IMVI melanoma) was over 100 µM, the TGI (LXFL 529 NSCLC) was over 100 µM and the TGI (M14 melanoma) was over 100 µM. For the same molecule, the TGI (M19-MEL melanoma) was over 100 µM, the TGI (MALME-3M melanoma) was 62.5 µM and the TGI (MOLT-4 leukemia) was over 100 µM. It also gave a GI50 (NCI-H226 lung) of 46.5 µM, a TGI (NCI-H226 lung) of over 100 µM and a TGI (NCI-H23 lung) of over 100 µM. For the same molecule, the TGI (NCI-H460 lung) was over 100 µM, the TGI (NCI-H522 lung) was 97.2 µM and the GI50 (OVCAR-3 ovarian) was 63.7 µM. The TGI (OVCAR-3 ovarian) was over 100 µM, the TGI (OVCAR-4 ovarian) was over 100 µM and the TGI (OVCAR-5 ovarian) was over 100 µM. The TGI (OVCAR-8 ovarian) was over 100 µM, the TGI (RPMI-8226 leukemia) was over 100 µM and the GI50 (RXF 393 renal) was 34 µM. For the same molecule, the TGI (RXF 393 renal) was over 100 µM, the GI50 (SF-268 CNS) was 23.4 µM and the TGI (SF-268 CNS) was 66.7 µM. It also gave a GI50 (SF-295 CNS) of 51.5 µM, a TGI (SF-295 CNS) of over 100 µM and a TGI (SF-539 CNS) of over 100 µM. It also gave a TGI (SK-MEL-28 melanoma) of over 100 µM, a GI50 (SK-MEL-5 melanoma) of 26.6 µM and a TGI (SK-MEL-5 melanoma) of over 100 µM. For the same molecule, the TGI (SK-OV-3 ovarian) was over 100 µM, the TGI (SN12C renal) was over 100 µM and the TGI (SNB-19 CNS) was over 100 µM. For the same molecule, the TGI (SNB-75 CNS) was over 100 µM, the TGI (SNB-78 CNS) was over 100 µM and the TGI (SR leukemia) was over 100 µM. It also gave a TGI (SW-620 colon) of over 100 µM, a TGI (TK-10 renal) of over 100 µM and a TGI (UACC-257 melanoma) of over 100 µM. It also gave a TGI (UACC-62 melanoma) of over 100 µM, a TGI (UO-31 renal) of over 100 µM and a TGI (XF 498 CNS) of over 100 µM.
